In patent US10449258B2, “Antibody drug conjugate, intermediate, preparation method, pharmaceutical composition and uses thereof” (XDCEXPLORER (SHANGHAI) CO., LTD., priority 2015, dated 2019):
Read-outs that look alike come from different tables or passages of the source.

How the values were obtained:
[1] = tested on: Her2-positive human BT474 breast tumor cells; experiment: Cytotoxicity assay (growth inhibition, CellTiter-Glo) on BT474
Description: (§1) Her2-positive human BT474 breast tumor cells (BT474 for short), Her2 low expression human MCF-7 breast tumor cells (MCF-7 for short), and human breast tumor cell strain MCF7-Her2 with stable-transfected Her2 outside MCF-7 (MCF-7-Her2 for short) were used (they were prepared by the methods disclosed in the literatures for preparing recombinant cells: Teemu T. Junttila, et al., Breast. Cancer Res. Treat., 2011, 128, 347 and Jeffrey J. Wallin et al., Clin. Cancer Res., 2012, 18, 3901, the contents of which are incorporated herein by reference in their entireties). The growth inhibition of tumor cells by T-CE-040 and T-CE-063 antibody drug conjugates were evaluated. BT474, MCF7-Her2 and MCF-7 were digested with 0.25% (v/v) trypsin and the cells were stripped and then suspended in 100 μL complete medium. 2,000 cells were inoculated in a 96-well plate and cultured, grew adherently overnight at 37° C., then 100 μL T-CE-040 and T-CE-063 antibody drug conjugates with different concentration gradients and the complete medium were added. After 120 hours, relative cell proliferation analysis was performed by adding 50 μL CellTiter-Glo® […] Cell Activation Reagent (CellTiter-GloB Luminescent, Promega).

[2] = tested on: Her2 low expression human MCF-7 breast tumor cells; experiment: Cytotoxicity assay (growth inhibition, CellTiter-Glo) on MCF-7
Description: as §1

[3] = tested on: human breast tumor cell strain MCF7-Her2 with stable-transfected Her2; experiment: Cytotoxicity assay (growth inhibition, CellTiter-Glo) on MCF7-Her2
Description: as §1

[4] = Homo sapiens, BT-474, 120 h, read-out: Cytotoxicity assay IC50 BT474, BT474 cells, 120 hours, CellTiter-Glo
[5] = Homo sapiens, MCF7, 120 h, read-out: Cytotoxicity assay IC50 MCF7, MCF-7 cells, 120 hours, CellTiter-Glo
[6] = Homo sapiens, 120 h, read-out: Cytotoxicity assay IC50 MCF-Her2, MCF7-Her2 cells, 120 hours, CellTiter-Glo
[7] = read-out: Cytotoxicity assay IC50 BT474, BT474 cells, 120 hours, CellTiter-Glo
[8] = read-out: Cytotoxicity assay IC50 MCF7, MCF-7 cells, 120 hours, CellTiter-Glo
[9] = read-out: Cytotoxicity assay IC50 MCF-Her2, MCF7-Her2 cells, 120 hours, CellTiter-Glo

| Structure (SMILES) | IC50 [1, 4] [nM] | IC50 [2, 5] [nM] | IC50 [3, 6] [nM] | IC50 [1, 7] [nM] | IC50 [2, 8] [nM] | IC50 [3, 9] [nM] |
| --- | --- | --- | --- | --- | --- | --- |
| COCC(S)(CCC(=O)N(C)[C@@H](C)C(=O)OC1CC(=O)N(C)c2cc(cc(OC)c2Cl)C/C(C)=C/C=C/[C@@H](OC)[C@@]2(O)C[C@H](OC(=O)N2)[C@@H](C)[C@@H]2O[C@@]12C)COC (stereo partly drawn) [CE-024] | 20.1 | 23.1 | 50 | – | – | – |
| COc1cc2cc(c1Cl)N(C)C(=O)C[C@H](OC(=O)[C@H](C)N(C)[C@H](CCSSC)C(F)(F)F)[C@]1(C)O[C@H]1[C@H](C)[C@@H]1C[C@@](O)(NC(=O)O1)[C@H](OC)/C=C/C=C(\C)C2 (single isomer, unassigned) [CE-030] | 2.4 | 6.2 | 3.2 | – | – | – |
| COCC(CCC(=O)N(C)[C@@H](C)C(=O)OC1CC(=O)N(C)c2cc(cc(OC)c2Cl)C/C(C)=C/C=C/[C@@H](OC)[C@@]2(O)C[C@H](OC(=O)N2)[C@@H](C)[C@@H]2O[C@@]12C)(COC)SSC (stereo partly drawn) [CE-017] | 14 | 8.9 | 3.1 | – | – | – |
| COc1cc2cc(c1Cl)N(C)C(=O)C[C@H](OC(=O)[C@H]1CC[C@H](CSSC)CC1)[C@]1(C)O[C@H]1[C@H](C)[C@@H]1C[C@@](O)(NC(=O)O1)[C@H](OC)/C=C/C=C(\C)C2 [CE-031] | 7.5 | 15 | 9.2 | – | – | – |
| COCC(CCC(=O)N(C)[C@H](C)C(=O)OC1CC(=O)N(C)c2cc(cc(OC)c2Cl)C/C(C)=C/C=C/[C@@H](OC)[C@@]2(O)C[C@H](OC(=O)N2)[C@@H](C)[C@@H]2O[C@@]12C)(COC)SSC (stereo partly drawn) [CE-016] | 23.4 | 67.7 | 42.7 | – | – | – |
| COCC(C)(CCC(=O)N(C)[C@H](C)C(=O)OC1CC(=O)N(C)c2cc(cc(OC)c2Cl)C/C(C)=C/C=C/[C@@H](OC)[C@@]2(O)C[C@H](OC(=O)N2)[C@@H](C)[C@@H]2O[C@@]12C)SSC (stereo partly drawn) [CE-014] | 19.6 | 127 | 68.8 | – | – | – |
| COc1cc2cc(c1Cl)N(C)C(=O)C[C@H](OC(=O)[C@H](C)OCCOCCSSC)[C@]1(C)O[C@H]1[C@H](C)[C@@H]1C[C@@](O)(NC(=O)O1)[C@H](OC)/C=C/C=C(\C)C2 [CE-028] | 12 | 41 | 33 | – | – | – |
| COc1cc2cc(c1Cl)N(C)C(=O)C[C@H](OC(=O)[C@H](C)OCCOCCOCCOCCOCCOCCNC(=O)CBr)[C@]1(C)O[C@H]1[C@H](C)C1C[C@@](O)(NC(=O)O1)[C@H](OC)/C=C/C=C(\C)C2 [CE-052a] | 33.1 | 18.4 | 9.8 | – | – | – |
| COc1cc2cc(c1Cl)N(C)C(=O)C[C@H](OC(=O)C(C)(C)OCCCSC1CC(=O)N(C[C@H]3CC[C@H](C(=O)ON4C(=O)CCC4=O)CC3)C1=O)[C@]1(C)O[C@H]1[C@H](C)C1C[C@@](O)(NC(=O)O1)[C@H](OC)/C=C/C=C(\C)C2 (stereo partly drawn) [CE-049] | 138 | 207 | 139 | – | – | – |
| COc1cc2cc(c1Cl)N(C)C(=O)C[C@H](OC(=O)C(COCCCSSC)OC)[C@]1(C)O[C@H]1[C@H](C)C1C[C@@](O)(NC(=O)O1)[C@H](OC)/C=C/C=C(\C)C2 (single isomer, unassigned) [CE-055-1] | – | – | – | 8 | 6 | 3 |
| COc1cc2cc(c1Cl)N(C)C(=O)CC(OC(=O)[C@H](C)N(C)C(CCSSCCCC(=O)ON1C(=O)CCC1=O)C(F)(F)F)[C@]1(C)O[C@H]1[C@H](C)[C@@H]1C[C@@](O)(NC(=O)O1)[C@H](OC)/C=C/C=C(\C)C2 (stereo partly drawn) [CE-041] | 68.3 | 185 | 126 | – | – | – |
| COCC(S)(CCC(=O)N(C)[C@H](C)C(=O)OC1CC(=O)N(C)c2cc(cc(OC)c2Cl)C/C(C)=C/C=C/[C@@H](OC)[C@@]2(O)C[C@H](OC(=O)N2)[C@@H](C)[C@@H]2O[C@@]12C)COC (stereo partly drawn) [CE-023] | 308 | 460 | 352 | – | – | – |
| COc1cc2cc(c1Cl)N(C)C(=O)CC(OC(=O)[C@@H](C)N(C)C(=O)CCC(C)(C#N)SSC)[C@]1(C)O[C@H]1[C@H](C)[C@@H]1C[C@@](O)(NC(=O)O1)[C@H](OC)/C=C/C=C(\C)C2 (stereo partly drawn) [CE-018] | 41.7 | 1570 | 399 | – | – | – |
| COc1cc2cc(c1Cl)N(C)C(=O)C[C@H](OC(=O)COCCCSC1CC(=O)N(C[C@H]3CC[C@H](C(=O)ON4C(=O)CCC4=O)CC3)C1=O)[C@]1(C)O[C@H]1[C@H](C)C1C[C@@](O)(NC(=O)O1)[C@H](OC)/C=C/C=C(\C)C2 (stereo partly drawn) [CE-048] | 266 | 171 | 72.1 | – | – | – |
| COc1cc2cc(c1Cl)N(C)C(=O)C[C@H](OC(=O)[C@H](C)OCCOCCOCC(=O)ON1C(=O)CCC1=O)[C@]1(C)O[C@H]1[C@H](C)C1C[C@@](O)(NC(=O)O1)[C@H](OC)/C=C/C=C(\C)C2 [CE-045] | 133 | 91.2 | 69.2 | – | – | – |
| COc1cc2cc(c1Cl)N(C)C(=O)C[C@H](OC(=O)[C@H](C)N(C)[C@@H](CCSSC)C(F)(F)F)[C@]1(C)O[C@H]1[C@H](C)[C@@H]1C[C@@](O)(NC(=O)O1)[C@H](OC)/C=C/C=C(\C)C2 (single isomer, unassigned) [CE-029] | 0.85 | 2 | 1.7 | – | – | – |
| COc1cc2cc(c1Cl)N(C)C(=O)C[C@H](OC(=O)[C@H](C)OCCSSC)[C@]1(C)O[C@H]1[C@H](C)[C@@H]1C[C@@](O)(NC(=O)O1)[C@H](OC)/C=C/C=C(\C)C2 [CE-026] | 14 | 41 | 17 | – | – | – |
| COc1cc2cc(c1Cl)N(C)C(=O)C[C@H](OC(=O)[C@H](C)OCCOCCOCCOCCOCCOCCN1C(=O)C=CC1=O)[C@]1(C)O[C@H]1[C@H](C)C1C[C@@](O)(NC(=O)O1)[C@H](OC)/C=C/C=C(\C)C2 [CE-046] | 375 | 462 | 232 | – | – | – |
| COc1cc2cc(c1Cl)N(C)C(=O)C[C@H](OC(=O)C(COCCCSSC)OC)[C@]1(C)O[C@H]1[C@H](C)C1C[C@@](O)(NC(=O)O1)[C@H](OC)/C=C/C=C(\C)C2 (single isomer, unassigned) [CE-054-1] | 10 | 7 | 3.4 | – | – | – |
| COc1cc2cc(c1Cl)N(C)C(=O)C[C@H](OC(=O)[C@H](C)N(C)C(CCSC1CC(=O)N(C[C@H]3CC[C@H](C(=O)ON4C(=O)CCC4=O)CC3)C1=O)C(F)(F)F)[C@]1(C)O[C@H]1[C@H](C)C1C[C@@](O)(NC(=O)O1)[C@H](OC)/C=C/C=C(\C)C2 (stereo partly drawn) [CE-038] | 163 | 873 | 425 | – | – | – |
| COc1cc2cc(c1Cl)N(C)C(=O)C[C@H](OC(=O)[C@H](C)OCCCSC1CC(=O)N(C[C@H]3CC[C@H](C(=O)ON4C(=O)CCC4=O)CC3)C1=O)[C@]1(C)O[C@H]1[C@H](C)C1C[C@@](O)(NC(=O)O1)[C@H](OC)/C=C/C=C(\C)C2 (stereo partly drawn) [CE-051] | – | – | – | 112 | 119 | 51.4 |
| COc1cc2cc(c1Cl)N(C)C(=O)C[C@H](OC(=O)[C@H](C)N(C)C(=O)CCC(C)(C#N)SSC)[C@]1(C)O[C@H]1[C@H](C)[C@@H]1C[C@@](O)(NC(=O)O1)[C@H](OC)/C=C/C=C(\C)C2 (stereo partly drawn) [CE-019] | 64 | 150 | 57 | – | – | – |
| COc1cc2cc(c1Cl)N(C)C(=O)C[C@H](OC(=O)[C@H](C)N(C)C(CCSSC)C(F)(F)F)[C@]1(C)O[C@H]1[C@H](C)[C@@H]1C[C@@](O)(NC(=O)O1)[C@H](OC)/C=C/C=C(\C)C2 (stereo partly drawn) [CE-011] | 1.2 | 2.4 | 1.5 | – | – | – |
| COCC(C)(CCC(=O)N(C)[C@@H](C)C(=O)O[C@H]1CC(=O)N(C)c2cc(cc(OC)c2Cl)C/C(C)=C/C=C/[C@@H](OC)[C@@]2(O)C[C@H](OC(=O)N2)[C@@H](C)[C@@H]2O[C@@]12C)SSC (stereo partly drawn) [CE-013] | – | 4.3 | 5.9 | 21 | – | – |
| COCC(C)(CCC(=O)N(C)[C@@H](C)C(=O)O[C@H]1CC(=O)N(C)c2cc(cc(OC)c2Cl)C/C(C)=C/C=C/[C@@H](OC)[C@@]2(O)C[C@H](OC(=O)N2)[C@@H](C)[C@@H]2O[C@@]12C)SSC (stereo partly drawn) [CE-015] | – | – | – | 6.3 | 3 | 7.1 |
| COc1cc2cc(c1Cl)N(C)C(=O)C[C@H](OC(=O)[C@H](C)OCCOCCSC1CC(=O)N(C[C@H]3CC[C@H](C(=O)ON4C(=O)CCC4=O)CC3)C1=O)[C@]1(C)O[C@H]1[C@H](C)C1C[C@@](O)(NC(=O)O1)[C@H](OC)/C=C/C=C(\C)C2 (stereo partly drawn) [CE-034] | 19.9 | 14.1 | 14.2 | – | – | – |
| COc1cc2cc(c1Cl)N(C)C(=O)CC(OC(=O)[C@@H](C)N(C)C(=O)CCC(SSC)C(C)C)[C@]1(C)O[C@H]1[C@H](C)[C@@H]1C[C@@](O)(NC(=O)O1)[C@H](OC)/C=C/C=C(\C)C2 (stereo partly drawn) [CE-021] | 63.9 | 98.6 | 92.9 | – | – | – |
| COCC(C)(CCC(=O)N(C)[C@H](C)C(=O)OC1CC(=O)N(C)c2cc(cc(OC)c2Cl)C/C(C)=C/C=C/[C@@H](OC)[C@@]2(O)C[C@H](OC(=O)N2)[C@@H](C)[C@@H]2O[C@@]12C)SSC (stereo partly drawn) [CE-012] | 16.4 | 65.8 | 133 | – | – | – |
